In this experiment the test system is B6C3F1 mice, intracerebral ependymoblastoma, median survival T/C. Description: NCI In Vivo Anticancer Drug Screen. Data for tumor model Ependymoblastoma (intracerebral) in B6C3F1 mice. To be noted: endpoint: median survival time, higher = longer survival. As to the method:
The antitumor activity of compounds was measured in mice bearing transplantable tumors. Survival or tumor size were measured and the results are expressed as the measurement made in the treated group (T) divided by the measurement made in the vehicle treated control group (C). The tumor model used in this assay is Ependymoblastoma (intracerebral) in B6C3F1 mice

Where [1] appears, read: dose: 4.0 mg/kg/injection, schedule: Q01DX005 (ip), vehicle: saline with Tween-80.

Values joined by “and” are separate entries in the source; they are usually repeats but may differ in a detail not shown here. Identical values can stand only once. Inconclusive results and toxic doses are left out.

Take `COC1C(CO)OC(n2cnc3c(=S)nc(N)[nH]c32)C1O` (stereo not given): the T/C was 104 % of control (dose: 12.5 mg/kg/injection, schedule: Q01DX005 (ip), vehicle: Klucel (hydroxypropylcellulose) (HPC)); 109 % of control (dose: 25.0 mg/kg/injection, schedule: Q01DX005 (ip), vehicle: Klucel (hydroxypropylcellulose) (HPC)); 119 % of control (dose: 50.0 mg/kg/injection, schedule: Q01DX005 (ip), vehicle: Klucel (hydroxypropylcellulose) (HPC)); 106 % of control (dose: 100.0 mg/kg/injection, schedule: Q01DX005 (ip), vehicle: Klucel (hydroxypropylcellulose) (HPC)).

Take `Nc1nc(=S)c2ncn(C3OC(COC(=O)c4ccc(Cl)cc4)C(OC(=O)c4ccc(Cl)cc4)C3OC(=O)c3ccc(Cl)cc3)c2[nH]1` (stereo not given): the T/C reads like this: (dose: 18.75 mg/kg/injection, schedule: Q01DX005 (ip), vehicle: Klucel (hydroxypropylcellulose) (HPC)) 101 % of control; (dose: 37.5 mg/kg/injection, schedule: Q01DX005 (ip), vehicle: Klucel (hydroxypropylcellulose) (HPC)) 102 % of control; (dose: 75.0 mg/kg/injection, schedule: Q01DX005 (ip), vehicle: Klucel (hydroxypropylcellulose) (HPC)) 98 % of control and 115 % of control.

For `CS(C)=O`, the T/C is 103 % of control (dose: 500.0 mg/kg/injection, schedule: Q01DX005 (ip), vehicle: water); 98 % of control (dose: 1000.0 mg/kg/injection, schedule: Q01DX005 (ip), vehicle: saline); 97 % of control (dose: 1000.0 mg/kg/injection, schedule: Q01DX005 (ip), vehicle: water); 96 % of control and 98 % of control and 100 % of control (dose: 2000.0 mg/kg/injection, schedule: Q01DX001 (ip), vehicle: saline); 109 % of control (dose: 2000.0 mg/kg/injection, schedule: Q01DX005 (ip), vehicle: saline); 103 % of control (dose: 2000.0 mg/kg/injection, schedule: Q01DX005 (ip), vehicle: water). Moreover, the T/C runs as follows: (dose: 2.0 grams/kg/injection, schedule: Q01DX001 (ip), vehicle: saline) 102 % of control; (dose: 4000.0 mg/kg/injection, schedule: Q01DX001 (ip), vehicle: saline) 91 % of control and 95 % of control and 103 % of control; (dose: 4000.0 mg/kg/injection, schedule: Q01DX005 (ip), vehicle: saline) 103 % of control; (dose: 4000.0 mg/kg/injection, schedule: Q01DX005 (ip), vehicle: water) 105 % of control; (dose: 4.0 grams/kg/injection, schedule: Q01DX001 (ip), vehicle: saline) 95 % of control; (dose: 8000.0 mg/kg/injection, schedule: Q01DX001 (ip), vehicle: saline) 101 % of control (2×) and 107 % of control. Further, the T/C reads like this: (dose: 8000.0 mg/kg/injection, schedule: Q01DX005 (ip), vehicle: saline) 103 % of control; (dose: 8000.0 mg/kg/injection, schedule: Q01DX005 (ip), vehicle: water) 98 % of control; (dose: 8.0 grams/kg/injection, schedule: Q01DX001 (ip), vehicle: saline) 99 % of control; (dose: 16000.0 mg/kg/injection, schedule: Q01DX001 (ip), vehicle: saline) 93 % of control.

Turning to `COC1OC(CNC(=O)N(CCCl)N=O)C(O)C(O)C1O` (stereo not given), the T/C is, setting by setting: (dose: 0.5 mg/kg/injection, schedule: Q01DX001 (ip), vehicle: saline) 103 % of control and 119 % of control; (dose: 1.0 mg/kg/injection, schedule: Q01DX001 (ip), vehicle: saline) 109 % of control and 86 % of control; (dose: 2.0 mg/kg/injection, schedule: Q01DX001 (ip), vehicle: saline) 99 % of control and 103 % of control; (dose: 4.0 mg/kg/injection, schedule: Q01DX001 (ip), vehicle: saline) 105 % of control and 109 % of control; (dose: 8.0 mg/kg/injection, schedule: Q01DX001 (ip), vehicle: saline) 103 % of control and 111 % of control; (dose: 16.0 mg/kg/injection, schedule: Q01DX001 (ip), vehicle: saline) 119 % of control.

In the case of `CCCCCCC(=O)O[C@H]1CC[C@H]2[C@@H]3CCC4=CC(=O)CC[C@]4(C)[C@H]3CC[C@]12C`, the T/C is, setting by setting: (dose: 8.0 mg/kg/injection, schedule: Q01DX005 (ip), vehicle: Klucel (hydroxypropylcellulose) (HPC)) 101 % of control and 110 % of control; (dose: 16.0 mg/kg/injection, schedule: Q01DX005 (ip), vehicle: Klucel (hydroxypropylcellulose) (HPC)) 92 % of control and 100 % of control; (dose: 32.0 mg/kg/injection, schedule: Q01DX005 (ip), vehicle: Klucel (hydroxypropylcellulose) (HPC)) 95 % of control and 110 % of control; (dose: 64.0 mg/kg/injection, schedule: Q01DX005 (ip), vehicle: Klucel (hydroxypropylcellulose) (HPC)) 108 % of control and 89 % of control; (dose: 128.0 mg/kg/injection, schedule: Q01DX005 (ip), vehicle: Klucel (hydroxypropylcellulose) (HPC)) 95 % of control and 96 % of control; (dose: 256.0 mg/kg/injection, schedule: Q01DX005 (ip), vehicle: Klucel (hydroxypropylcellulose) (HPC)) 97 % of control.

Regarding `ClC1=C(Cl)C2(Cl)C3C(Cl)C(Cl)CC3C1(Cl)C2(Cl)Cl` (stereo not given), the T/C is, setting by setting: (dose: 6.0 mg/kg/injection, schedule: Q01DX005 (ip), vehicle: saline with Tween-80) 99 % of control and 100 % of control and 105 % of control; (dose: 6.25 mg/kg/injection, schedule: Q01DX005 (ip), vehicle: other) 101 % of control; (dose: 12.0 mg/kg/injection, schedule: Q01DX005 (ip), vehicle: saline with Tween-80) 95 % of control and 96 % of control and 105 % of control; (dose: 12.5 mg/kg/injection, schedule: Q01DX005 (ip), vehicle: other) 108 % of control; (dose: 24.0 mg/kg/injection, schedule: Q01DX005 (ip), vehicle: saline with Tween-80) 96 % of control and 105 % of control and 87 % of control; (dose: 25.0 mg/kg/injection, schedule: Q01DX005 (ip), vehicle: other) 98 % of control. The T/C (dose: 45.0 mg/kg/injection, schedule: Q01DX005 (ip), vehicle: saline with Tween-80) was 94 % of control and 101 % of control and 110 % of control; the T/C (dose: 50.0 mg/kg/injection, schedule: Q01DX005 (ip), vehicle: other) was 109 % of control; the T/C (dose: 90.0 mg/kg/injection, schedule: Q01DX005 (ip), vehicle: saline with Tween-80) was 101 % of control and 86 % of control and 89 % of control.

Consider `COC1OC(CNC(=O)N(C)N=O)C(O)C(O)C1O` (stereo not given), for which the T/C by setting is: (dose: 25.0 mg/kg/injection, schedule: Q01DX005 (ip), vehicle: saline) 124 % of control; (dose: 50.0 mg/kg/injection, schedule: Q01DX005 (ip), vehicle: saline) 121 % of control; (dose: 400.0 mg/kg/injection, schedule: Q01DX005 (ip), vehicle: saline) 164 % of control.

Regarding `COC(=O)C(Cc1ccc(N(CCCl)CCCl)cc1)N=NNc1nc[nH]c1C(N)=O` (stereo not given), the T/C by setting is: under setting [1], 107 % of control; (dose: 8.0 mg/kg/injection, schedule: Q01DX005 (ip), vehicle: saline with Tween-80) 101 % of control and 112 % of control; (dose: 16.0 mg/kg/injection, schedule: Q01DX005 (ip), vehicle: saline with Tween-80) 104 % of control and 118 % of control; (dose: 32.0 mg/kg/injection, schedule: Q01DX005 (ip), vehicle: saline with Tween-80) 123 % of control.

Regarding `COc1ccc(CC2C(=O)NC(C)C(=O)N(C)C3C(=O)N(C)C(Cc4ccc(O)c(c4)Oc4ccc(cc4)C3O)C(=O)NC(C)C(=O)NC(C)C(=O)N2C)cc1` (stereo not given), the T/C is, setting by setting: (dose: 0.25 mg/kg/injection, schedule: Q01DX005 (ip), vehicle: Klucel (hydroxypropylcellulose) (HPC)) 103 % of control; (dose: 0.25 mg/kg/injection, schedule: Q01DX005 (ip), vehicle: saline with Tween-80) 105 % of control; (dose: 0.5 mg/kg/injection, schedule: Q01DX005 (ip), vehicle: Klucel (hydroxypropylcellulose) (HPC)) 107 % of control; (dose: 0.5 mg/kg/injection, schedule: Q01DX005 (ip), vehicle: saline with Tween-80) 114 % of control; (dose: 1.0 mg/kg/injection, schedule: Q01DX005 (ip), vehicle: Klucel (hydroxypropylcellulose) (HPC)) 106 % of control; (dose: 1.0 mg/kg/injection, schedule: Q01DX005 (ip), vehicle: saline with Tween-80) 113 % of control. The T/C is, setting by setting: (dose: 2.0 mg/kg/injection, schedule: Q01DX005 (ip), vehicle: Klucel (hydroxypropylcellulose) (HPC)) 96 % of control; (dose: 2.0 mg/kg/injection, schedule: Q01DX005 (ip), vehicle: saline with Tween-80) 114 % of control; under setting [1], 97 % of control.

For the origin of these results see PubChem BioAssay AID226 (DTP/NCI, 2004).
